In brackets after ≈: the same amount, converted by molar mass.
How the values were obtained:
E. coli ∆nfsB = assay: microbe, parasite or virus in culture; type: cell-based; settings: Escherichia coli, read-out: MIC ∆nfsB
Method: To assess the biological relevance of the interacting protein and establish the link between nitroreductases to the antibacterial activity of NTC compounds, single (ΔnfsA or ΔnfsB) and double knockouts (ΔnfsA & ΔnfsB) of nitroreductases were generated by phage transduction using strains from the Keio collection.
(§1) The inoculum used for all the experiments is derived from a single seed lot that is maintained as glycerol stocks at −80 °C and are sub cultured on LB plate for isolated colonies. Single colony of each strain is grown in M9 medium. All test compound stocks and dilutions are prepared in DMSO. Serial two-fold dilutions of compounds are prepared separately, with the concentrations ranging from 2 mg/mL to 0.015 mg/mL. To 150 µl (3–7 × 10^5 CFU/ml) of bacterial culture in 96 well microtitre plates, 3 μL compound from each of the dilutions is added to respective wells to obtain final concentrations ranging from 40 µg/mL to 0.3 µg/mL of the test compounds. Media control, culture control and appropriate reference drug controls are included. […] Growth is monitored by checking absorbance at 600 nm (A600). […] The samples from MIC and above concentrations are plated for MBC (Minimum Bactericidal Concentration). The samples are diluted 1:10 and plated on LB agar plates. […] The killing kinetics is determined by enumerating survivors at various time points following compound exposure. E. coli cells (~10^7 CFU/ml; A600 of 0.1) are treated with various concentrations (40 µg/mL to 0.3 µg/mL) of compounds in a 96-well microtitre plate. At various time intervals (0 to 8 h), 30 μl volumes of treated cultures are serially diluted and plated on LB agar plates. […] Data is expressed as the log10 CFU for each drug treatment.
The wild-type E. coli strain BW25113 and the entire Keio collection of knockouts[22] is maintained as glycerol stocks at −80 °C in 96-well deep well blocks. […] These are sub cultured in 150 µl of LB broth (Kanamycin 50 ug/ml, except for the wild-type strain) in 96 well microtiter plates and then adapted into M9 medium with 0.4% glucose. […] Cultures of single gene knockouts that show an altered MIC as compared to that of the wild type are scored as ‘Hits’.

ATCC25922 = assay: MIC on E. coli ATCC25922; type: cell-based; settings: strain ATCC25922
Method: as §1

E. coli BW24113 = assay: In vitro time kill analysis; type: cell-based; settings: for time to 99.9% reduction: at 2–4X MIC; for time to total kill (below the limit of quantitation, LOQ): at 8X MIC
Method: as §1

[1] = test system: Salmonella typhimurium clinical strain; assay: MIC, Salmonella typhimurium; type: cell-based
Method: as §1, with “plate.” for “plate. At various time intervals (0 to 8 h), 30 μl volumes of treated cultures are serially diluted and plated on LB agar plates.”

[2] = test system: Shigella sonnei clinical strain; assay: MIC, Shigella sonnei; type: cell-based
Method: as §1, with “plate.” for “plate. At various time intervals (0 to 8 h), 30 μl volumes of treated cultures are serially diluted and plated on LB agar plates.”

[3] = Intravenous pharmacokinetics; type: in vivo, BALB/c mice; settings: for AUC / AUC(0-inf) / AUC(0-t) / clearance / half-life / Vd: BALB/c, mouse, in vivo; for AUC: iv, 2 mg/kg, used for estimation of oral bioavailability; for AUC(0-inf) / AUC(0-t) / clearance / half-life / Vd / AUMC0-∞ / Clast / Kel(β) / extr AUC: mice, single IV dose 2 mg/kg; for Vd: read-out: Vss; for condition of mice post dose and throughout the study: single intravenous dose of 2 mg/kg or single oral dose of 10 mg/kg
Method: The test substances were formulated in the vehicle DMSO: PEG400: Ethanol (absolute): Water at ratio of 10:40:20:30 (v/v). The required quantity of test compound was weighed, transferred into a vial and dissolved using the appropriate volumes of DMSO, PEG400, Ethanol (absolute) and sterile water in a sequential manner until a clear solution was obtained. The test substance was administered intravenously as a bolus via the tail vein at a dose volume of 5 ml/kg.
(§2) At 5 min, 15 min, 30 min, 1 h, 2 h, 4 h, 8 h, and 24 h time points, and prior to sampling, mice were anaesthetized with isoflurane. From each mouse, two blood samples were drawn; the 1st was non-terminal (0.1 ml) and the 2nd terminal, by retro-orbital plexus puncture using heparanised capillary tubes. Blood was collected in 2 ml Eppendorf tubes containing 0.01 ml of 10% K2EDTA as anticoagulant, mixed gently and placed in ice before centrifugation. Blood was centrifuged at 10,000 rpm for 5 min, and plasma was harvested and stored at −80 °C until bioanalysis.
(§3) Ultrafast liquid chromatography mass spectrometric method was used for the estimation of test compounds in pre-clinical study samples. The analysis was performed using an API 4000 LC-MS/MS system. The interface used with the API 4000 LC-MS/MS was a Turbo Ion spray. The positive ions were measured in MRM mode. The analyte was extracted using a solid-phase extraction procedure. The data was acquired by and integrated using the Applied Biosystems “Analyst” version 1.5.2 software. Linear regression, with 1/x^2 weighting was used for calibration.
(§4) Non-compartmental (NCA) PK analysis was performed using MS Excel. The linear trapezoidal rule was used to estimate the AUC. The NCA analysis was performed using the following equations (3) on mean concentration time data: AUC=Σ[(Ci1+Ci2)/2]∗[ti2−ti1] AUMC=Σ[((Ci1∗ti1)+(Ci2∗ti2))/2)∗(ti2−ti1)] AUCt−∞=Clast/Kel AUC0−∞=AUC0−t+AUCt−∞ AUCextrapolated(%)=[AUCt−∞/AUC0−∞]∗100 where, Ci1 and Ci2 are the concentrations at times ti1 and ti2, respectively. Kel=ln(Cx/Cy)/(ty−tx) where, Kel is the first order elimination rate constant, ln is the natural logarithm, Cx and Cy are the first and last concentrations, respectively on the linear portion of the terminal phase of the concentration-time profile, and ty and tx are the corresponding time points. T1/2=0.693/Kel Cl=Doseiv/AUC0−∞ Vss=(AUMC0−∞/AUC0−∞)∗(Doseiv/AUC0−∞) Cmax and tmax were visually estimated from the mean oral conc-time profile F(%)=(AUCpo/AUCiv)∗(Doseiv/Dosepo)∗100

Oral pharmacokinetics = type: in vivo, BALB/c mice; parameters: Ke: unit not given here; settings: for AUC / AUC(0-inf) / AUC(0-t) / Cmax / Tmax / half-life / bioavailability: BALB/c, mouse, plasma; for AUC: po; for AUC(0-inf) / AUC(0-t) / Cmax / Tmax / half-life / Ke / ext AUC: mice
Method: The test substances were formulated in 10% DMSO in 0.25% carboxy methyl cellulose. […] Then 3.6 ml of 0.25% of CMC was added in aliquots to the DMSO solution, with constant grinding using a pestle until a uniform suspension was obtained. […]
as §2, §3, §4

[4] = test system: clinical isolate of E. coli (Strain No. 371); assay: Neutropenic thigh infection, E. coli clinical isolate; type: in vivo, BALB/c mice; settings: for Log10CFU Mean Diff. vs. Untreated Controls: Study TI-2014-023, Clinical Isolate N. 371, 100mg/kg per oral; for efficacy in thigh infection model (in words): clinical isolate of E. coli
[5] = test system: E. coli acrD knockout strain; assay: MIC, efflux pump knockout acrD; type: cell-based; settings: Escherichia coli, read-out: MIC acrD
Method: as §1, with “plate.” for “plate. At various time intervals (0 to 8 h), 30 μl volumes of treated cultures are serially diluted and plated on LB agar plates.”

Compound | MIC (E. coli ∆nfsB) [µg/mL] | MIC (ATCC25922) [µg/mL] | time to 99.9% reduction (E. coli BW24113) [h] | time to total kill (below the limit of quantitation, LOQ) (E. coli BW24113) [h] | MIC Salmonella typhimurium [1] [µg/mL] | AUC [3] [ng·h/mL] | AUC(0-inf) [3] [ng·h/mL] | AUC(0-t) [3] [ng·h/mL] | clearance [3] [mL/min/kg] | half-life [3] [min] | Vd [3] [L/kg] | AUMC0-∞ [3] | Clast [3] [ng/mL] | Kel(β) [3] | extr AUC [3] [%] | condition of mice post dose and throughout the study [3] | AUC (Oral pharmacokinetics; 10 mg/kg) [ng·h/mL] | AUC(0-inf) (Oral pharmacokinetics; single oral dose 10 mg/kg) [ng·h/mL] | AUC(0-t) (Oral pharmacokinetics; single oral dose 10 mg/kg) [ng·h/mL] | Cmax (Oral pharmacokinetics; single oral dose 10 mg/kg) [ng/mL] | other results
COc1cc(-c2csc(NC(=O)c3ccc([N+](=O)[O-])s3)n2)ccc1Cl [compound 20, N-(4-(4-chloro-3-methoxyphenyl)thiazol-2-yl)-5-nitrothiophene-2-carboxamide] | 2.5 (≈ 6.32 µM) | 2 (≈ 5.05 µM) | 6 to 8 | 8 | 10 (≈ 25.3 µM) | – | – | – | – | – | – | – | – | – | – | – | – | – | – | – | –
O=C1CN(/N=C/c2ccc([N+](=O)[O-])o2)C(=O)N1 [nitrofurantoin, reference compound] | 2.5 (≈ 10.5 µM) | 20 (≈ 84 µM) | – | – | – | – | – | – | – | – | – | – | – | – | – | – | – | – | – | – | –
O=C(Nc1nc(-c2ccc(F)cc2F)cs1)c1ccc([N+](=O)[O-])s1 [compound 12, N-(4-(2,4-difluorophenyl)thiazol-2-yl)-5-nitrothiophene-2-carboxamide] | 2.5 (≈ 6.81 µM) | 1 (≈ 2.72 µM) | – | – | 2.5 (≈ 6.81 µM) | 570 | 570 | 570 | 58.7 | 36 | 1.64 | 0.26 | 3 | 1.18 ^-h | 0.4 | visibly normal | 760 | 760 | 750 | 650 | MIC Shigella sonnei [2]: 5 µg/mL (≈ 13.6 µM); Tmax (Oral pharmacokinetics; single oral dose 10 mg/kg): 15 min; half-life (Oral pharmacokinetics; single oral dose 10 mg/kg): 61.8 min; bioavailability (Oral pharmacokinetics; oral 10 mg/kg vs IV 2 mg/kg): 26.7%; Ke (Oral pharmacokinetics; single oral dose 10 mg/kg): 0.67; ext AUC (Oral pharmacokinetics; single oral dose 10 mg/kg): 0.5%; Log10CFU Mean Diff. vs. Untreated Controls [4]: 1.907 Log10CFU; efficacy in thigh infection model (in words) [4]: significantly bactericidal
Cc1sc(NC(=O)c2ccc([N+](=O)[O-])s2)nc1-c1ccccc1 [compound 7, N-(5-Methyl-4-phenylthiazol-2-yl)-5-nitrothiophene-2-carboxamide] | > 40 | – | – | – | – | – | – | – | – | – | – | – | – | – | – | – | – | – | – | – | MIC [5]: > 40 µg/mL
O=C(Nc1nc(-c2ccc(F)cc2)cs1)c1ccc([N+](=O)[O-])s1 [compound 15, N-(4-(4-Fluorophenyl)thiazol-2-yl)-5-nitrothiophene-2-carboxamide] | 5 (≈ 14.3 µM) | 1.25 (≈ 3.58 µM) | 6 to 8 | 8 | – | 910 | 911 | 900 | 36.7 | 30 | 0.4 | 0.17 | 12 | 1.51 ^-h | 0.9 | visibly normal | 750 | 760 | 750 | 1200 | AUC (Oral pharmacokinetics; 100 mg/kg): 10300 ng·h/mL; Tmax (Oral pharmacokinetics; single oral dose 10 mg/kg): 15 min; half-life (Oral pharmacokinetics; single oral dose 10 mg/kg): 289 min; AUC(0-t) (Oral pharmacokinetics; single oral dose 100 mg/kg): 10300 ng·h/mL; Cmax (Oral pharmacokinetics; single oral dose 100 mg/kg): 3800 ng/mL; Tmax (Oral pharmacokinetics; single oral dose 100 mg/kg): 15 min; bioavailability (Oral pharmacokinetics; oral 10 mg/kg vs IV 2 mg/kg): 16.5%; bioavailability (Oral pharmacokinetics; oral 100 mg/kg vs IV 2 mg/kg): 22.6%; Ke (Oral pharmacokinetics; single oral dose 10 mg/kg): 0.14; ext AUC (Oral pharmacokinetics; single oral dose 10 mg/kg): 1.5%; Log10CFU Mean Diff. vs. Untreated Controls [4]: 1.553 Log10CFU; efficacy in thigh infection model (in words) [4]: significantly bactericidal

— article PMC5940854, “Nitrothiophene carboxamides, a novel narrow spectrum antibacterial series: Mechanism of action and Efficacy” (Scientific Reports, 2018)
